Source: the supplement of paper PMC11699113

Test system: ED cells (E. derm NBM-6, ATCC CCL-57)
Experiment: cell viability (ATP, CellTiter-Glo) relative to untreated control (fraction of control); higher = less cytotoxic

CC(C)CN(C[C@@H](OP(=O)(O)O)[C@H](Cc1ccccc1)NC(=O)O[C@H]1CCOC1)S(=O)(=O)c1ccc(N)cc1 [fosamprenavir]
cell viability
Settings	0.03 µM	0.06 µM	0.125 µM	0.25 µM	0.5 µM	2 µM	5 µM	10 µM	20 µM	32 µM
incubation time: 1h	1.1	1.13	1.11	1.11	1.11	1.1	1.1	1.11	1.1	1.08
incubation time: 24h	1.01	1.01	1.01	1	0.994	1	0.979	0.978	0.978	0.949
incubation time: 72h	1.08	1.08	1.08	1.08	1.08	1.08	1.04	1.03	1	0.953
incubation time: 144h	1.02	1.04	1.04	1.06	1.05	1.05	1.04	1.02	0.993	0.957

Cc1ccnc2c1NC(=O)c1cccnc1N2C1CC1 [nevirapine]
cell viability
Settings	0.5 µM	2 µM	5 µM	10 µM	25 µM	50 µM	80 µM	100 µM	200 µM	300 µM
incubation time: 1h	1.05	1.04	1.05	1.05	1.05	1.04	1.05	1.04	1.05	1.04
incubation time: 24h	1.06	1.06	1.07	1.07	1.08	1.09	1.06	1.08	1.05	1.04
incubation time: 72h	1.04	1.05	1.07	1.07	1.06	1.06	1.03	1.02	0.958	0.924
incubation time: 144h	1	1.02	1.02	1.03	1.02	0.989	0.962	0.961	0.886	0.848

Nc1ccn([C@@H]2CS[C@H](CO)O2)c(=O)n1 [lamivudine]
cell viability
Settings	0.5 µM	2 µM	5 µM	10 µM	20 µM	40 µM	50 µM	75 µM	100 µM	150 µM
incubation time: 1h	1.04	1.02	1.03	1.03	1.02	1.01	1.01	1.02	0.997	0.979
incubation time: 24h	1.02	1.03	1.03	1.03	1.03	1.03	1.02	1.03	1.03	1.04
incubation time: 72h	1.03	1.04	1.05	1.04	1.06	1.05	1.04	1.04	1.04	1.02
incubation time: 144h	1.03	1.03	1.04	1.04	1.04	1.04	1.03	1.04	1.03	1
